According to ChEMBL document CHEMBL1144292, “Estrogen receptor ligands. Part 11: Synthesis and activity of isochromans and isothiochromans” (Bioorg Med Chem Lett, 2005):

Legend:
Estrogen receptor [1] = biological target: T1, Estrogen receptor (Homo sapiens, UniProt P03372)
T1 sequence (P03372 whole entry): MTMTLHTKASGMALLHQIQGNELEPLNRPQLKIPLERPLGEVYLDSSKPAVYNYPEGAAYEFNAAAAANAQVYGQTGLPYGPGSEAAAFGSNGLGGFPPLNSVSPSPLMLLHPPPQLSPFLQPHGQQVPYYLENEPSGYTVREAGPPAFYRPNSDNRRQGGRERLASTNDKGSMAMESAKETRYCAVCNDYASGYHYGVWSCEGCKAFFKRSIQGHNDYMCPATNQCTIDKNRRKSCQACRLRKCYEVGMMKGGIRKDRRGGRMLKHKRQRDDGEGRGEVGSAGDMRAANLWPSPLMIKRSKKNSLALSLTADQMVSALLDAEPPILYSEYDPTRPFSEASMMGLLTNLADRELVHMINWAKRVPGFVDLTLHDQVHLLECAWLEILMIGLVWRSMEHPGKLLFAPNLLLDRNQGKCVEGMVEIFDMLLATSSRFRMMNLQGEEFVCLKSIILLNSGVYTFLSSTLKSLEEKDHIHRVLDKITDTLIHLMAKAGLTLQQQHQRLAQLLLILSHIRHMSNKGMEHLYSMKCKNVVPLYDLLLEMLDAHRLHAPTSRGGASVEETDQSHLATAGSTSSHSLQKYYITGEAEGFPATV
Description: Binding affinity for human estrogen receptor alpha

Estrogen receptor beta = Estrogen receptor beta (Homo sapiens, UniProt Q92731)
Description: Binding affinity for human estrogen receptor beta

Estrogen receptor [2] = biological target: Estrogen receptor (Homo sapiens, UniProt Q92731+P03372); details: mcf-7
Description: Inhibition of MCF-7 cell proliferation

Sequence of Estrogen receptor beta (Q92731 whole entry): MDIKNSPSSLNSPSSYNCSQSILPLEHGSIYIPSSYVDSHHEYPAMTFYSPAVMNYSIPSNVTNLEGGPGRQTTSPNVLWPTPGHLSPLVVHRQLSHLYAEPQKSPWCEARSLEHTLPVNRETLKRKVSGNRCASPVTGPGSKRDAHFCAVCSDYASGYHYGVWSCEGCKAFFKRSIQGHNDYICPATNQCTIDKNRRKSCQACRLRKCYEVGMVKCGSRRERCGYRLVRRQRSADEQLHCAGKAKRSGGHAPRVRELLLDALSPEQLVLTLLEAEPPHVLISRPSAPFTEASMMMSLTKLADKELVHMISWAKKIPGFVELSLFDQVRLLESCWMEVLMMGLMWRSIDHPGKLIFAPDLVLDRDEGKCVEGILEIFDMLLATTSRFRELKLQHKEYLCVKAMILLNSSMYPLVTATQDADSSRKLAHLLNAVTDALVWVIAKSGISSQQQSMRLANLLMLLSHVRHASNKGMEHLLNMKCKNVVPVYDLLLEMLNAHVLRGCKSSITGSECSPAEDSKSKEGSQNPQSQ

Row | SMILES | IC50 (Estrogen receptor [1]) | IC50 (Estrogen receptor beta) | IC50 (Estrogen receptor [2])
1 | COc1ccc2c(c1)CO[C@H](c1ccccc1)[C@@H]2c1ccc(OCCN2CCCC2)cc1 | 39 nM | 315 nM | 57 nM
2 | COc1ccc2c(c1)CS[C@H](c1ccccc1)[C@@H]2c1ccc(OCCN2CCCC2)cc1 | 13 nM | 110 nM | 164 nM
3 | Oc1ccc2c(c1)CO[C@H](c1ccccc1)[C@@H]2c1ccc(OCCN2CCCC2)cc1 | 2.4 nM | 3.6 nM | 0.15 nM
4 | Oc1ccc2c(c1)CS[C@H](c1ccccc1)[C@@H]2c1ccc(OCCN2CCCC2)cc1 | 0.6 nM | 2.1 nM | 0.25 nM
